Counter-ions that a name gives are not always drawn.
Test system: HT-29 cells
Assay: HT-29 necroptosis cell viability assay (TNF-α/SMAC mimetic/zVAD-FMK, CellTiter-Glo)
Format: cell-based
Conditions: Homo sapiens, HT-29, HT-29 necroptosis cell viability, IC50 class symbols; read-out: Activity
Outline: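 Necroptosis was triggered by TNF-α (10 ng/ml), SMAC mimetic (6 μM) and zVAD-FMK (10 μM) in serum-free medium during 20 h compound exposure (10 concentrations, threefold steps) of HT-29 cells. IC50 from duplicate dose-responses uses CellTiter-Glo ATP luminescence as viability read-out.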

**Q.** How did the IC50 turn out when `N#C[C@H]1CCN(c2cc(Oc3ccc(-n4ncn(Cc5c(F)cccc5F)c4=O)cc3)ccn2)C1` [Example 401, (S)-1-(4-(4-(4-(2,6-difluorobenzyl)-5-oxo-4,5-dihydro-1H-1,2,4-triazol-1-yl)phenoxy)pyridin-2-yl)pyrrolidine-3-carbonitrile] was run?
**A.** Its IC50 is < 100 nM.

**Q.** Which IC50 does the source give for `N#Cc1cc(Oc2ccc(-n3ncn(Cc4c(F)cccc4F)c3=O)cc2F)c(F)cn1` [Example 402, 4-(4-(4-(2,6-difluorobenzyl)-5-oxo-4,5-dihydro-1H-1,2,4-triazol-1-yl)-2-fluorophenoxy)-5-fluoropicolinonitrile] here?
**A.** Its IC50 is < 100 nM.

**Q.** How did the IC50 turn out when `O=c1n(-c2ccc(Oc3ccncc3)cc2)nc(Cl)n1Cc1ccccc1` [Example 403, 4-benzyl-5-chloro-2-(4-(pyridin-4-yloxy)phenyl)-2,4-dihydro-3H-1,2,4-triazol-3-one] was run?
**A.** Its IC50 is 100 to 1000 nM.

**Q.** For `N#Cc1ccccc1Oc1ccc(-n2ncn(Cc3c(F)cccc3F)c2=O)cc1` [Example 404, 2-(4-(4-(2,6-difluorobenzyl)-5-oxo-4,5-dihydro-1H-1,2,4-triazol-1-yl)phenoxy)benzonitrile], which IC50 is on record?
**A.** The IC50 was 100 to 1000 nM.

**Q.** With `N#Cc1cc(Oc2ccc(-n3ncn(Cc4c(F)cccc4F)c3=O)cc2)ccn1` [Example 405, 4-(4-(4-(2,6-difluorobenzyl)-5-oxo-4,5-dihydro-1H-1,2,4-triazol-1-yl)phenoxy)picolinonitrile] as the molecule, how does the IC50 read?
**A.** The IC50 was 100 to 1000 nM.

**Q.** `N#Cc1cc(Oc2ccc(-n3ncn(Cc4c(F)cccc4F)c3=O)cc2F)c(Cl)cn1` [Example 406, 5-chloro-4-(4-(4-(2,6-difluorobenzyl)-5-oxo-4,5-dihydro-1H-1,2,4-triazol-1-yl)-2-fluorophenoxy)picolinonitrile] was tested. Which IC50 did it give?
**A.** Its IC50 is < 100 nM.

**Q.** How did the IC50 turn out when `CN(CC1CCOCC1)c1cc(Oc2ccc(-n3ncn(Cc4c(F)cccc4F)c3=O)cc2)ccn1` [Example 407, 4-[(2,6-difluorophenyl)methyl]-2-[4-({2-[methyl(oxan-4-ylmethyl)amino]pyridin-4-yl}oxy)phenyl]-1,2,4-triazol-3-one] was run?
**A.** Its IC50 is 100 to 1000 nM.

**Q.** For `CN(CC1CCCCO1)c1cc(Oc2ccc(-n3ncn(Cc4c(F)cccc4F)c3=O)cc2)ccn1` (stereo not drawn) [Example 408, 4-(2,6-difluorobenzyl)-2-(4-((2-(methyl((tetrahydro-2H-pyran-2-yl)methyl)amino)pyridin-4-yl)oxy)phenyl)-2,4-dihydro-3H-1,2,4-triazol-3-one], which IC50 is on record?
**A.** Its IC50 is < 100 nM.

**Q.** `CCOC1CN(c2nccc(Oc3ccc(-n4ncn(Cc5c(F)cccc5F)c4=O)cc3)c2N)C1` [Example 409, 2-(4-((3-amino-2-(3-ethoxyazetidin-1-yl)pyridin-4-yl)oxy)phenyl)-4-(2,6-difluorobenzyl)-2,4-dihydro-3H-1,2,4-triazol-3-one] was tested. Which IC50 did it give?
**A.** Its IC50 is 100 to 1000 nM.

**Q.** Which IC50 does the source give for `Nc1c(Oc2ccc(-n3ncn(Cc4c(F)cccc4F)c3=O)cc2)ccnc1N1CC2(CCOCC2)C1` [Example 410, 2-(4-((3-amino-2-(7-oxa-2-azaspiro[3.5]nonan-2-yl)pyridin-4-yl)oxy)phenyl)-4-(2,6-difluorobenzyl)-2,4-dihydro-3H-1,2,4-triazol-3-one] here?
**A.** Its IC50 is 100 to 1000 nM.

**Q.** For `O=c1n(Cc2c(F)cccc2F)cnn1-c1ccc(Oc2cc(N3CC4(CCN4)C3)ncc2Cl)c(F)c1` [Example 411, 2-(4-((5-chloro-2-(1,6-diazaspiro[3.3]heptan-6-yl)pyridin-4-yl)oxy)-3-fluorophenyl)-4-(2,6-difluorobenzyl)-2,4-dihydro-3H-1,2,4-triazol-3-one hydrochloride], which IC50 is on record?
**A.** The IC50 was < 100 nM.

**Q.** How did the IC50 turn out when `O=c1n(Cc2c(F)cccc2F)cnn1-c1ccc(Oc2cc(N3CC4(CCCN4)C3)ncc2Cl)c(F)c1` [Example 412, 2-(4-((5-chloro-2-(2,5-diazaspiro[3.4]octan-2-yl)pyridin-4-yl)oxy)-3-fluorophenyl)-4-(2,6-difluorobenzyl)-2,4-dihydro-3H-1,2,4-triazol-3-one] was run?
**A.** The IC50 was 100 to 1000 nM.

**Q.** For `C[C@H]1C[C@@H](N)CN1c1cc(Oc2ccc(-n3ncn(Cc4c(F)cccc4F)c3=O)cc2F)c(Cl)cn1` [Example 413, 2-(4-((2-((2S,4R)-4-amino-2-methylpyrrolidin-1-yl)-5-chloropyridin-4-yl)oxy)-3-fluorophenyl)-4-(2,6-difluorobenzyl)-2,4-dihydro-3H-1,2,4-triazol-3-one], which IC50 is on record?
**A.** The IC50 was < 100 nM.

**Q.** For `CNC1(C)CN(c2cc(Oc3ccc(-n4ncn(Cc5c(F)cccc5F)c4=O)cc3F)c(Cl)cn2)C1` [Example 414, 2-(4-((5-chloro-2-(3-methyl-3-(methylamino)azetidin-1-yl)pyridin-4-yl)oxy)-3-fluorophenyl)-4-(2,6-difluorobenzyl)-2,4-dihydro-3H-1,2,4-triazol-3-one], which IC50 is on record?
**A.** The IC50 was > 10000 nM.

**Q.** How did the IC50 turn out when `C[C@H]1[C@@H](N)CN1c1cc(Oc2ccc(-n3ncn(Cc4c(F)cccc4F)c3=O)cc2F)c(F)cn1` [Example 415, 2-(4-((2-((2S,3S)-3-amino-2-methylazetidin-1-yl)-5-fluoropyridin-4-yl)oxy)-3-fluorophenyl)-4-(2,6-difluorobenzyl)-2,4-dihydro-3H-1,2,4-triazol-3-one] was run?
**A.** Its IC50 is < 100 nM.

**Q.** With `CC1(N)CN(c2nccc(Oc3ccc(-n4ncn(Cc5c(F)cccc5F)c4=O)cc3F)c2F)C1` [Example 416, 2-(4-((2-(3-amino-3-methylazetidin-1-yl)-3-fluoropyridin-4-yl)oxy)-3-fluorophenyl)-4-(2,6-difluorobenzyl)-2,4-dihydro-3H-1,2,4-triazol-3-one] as the molecule, how does the IC50 read?
**A.** Its IC50 is < 100 nM.

**Q.** How did the IC50 turn out when `Cc1c(Oc2ccc(-n3ncn(Cc4c(F)cccc4F)c3=O)cc2F)ccnc1N1CC(C)(N)C1` [Example 417, 2-(4-((2-(3-amino-3-methylazetidin-1-yl)-3-methylpyridin-4-yl)oxy)-3-fluorophenyl)-4-(2,6-difluorobenzyl)-2,4-dihydro-3H-1,2,4-triazol-3-one] was run?
**A.** The IC50 was < 100 nM.

**Q.** For `O=c1n(Cc2c(F)cccc2F)cnn1-c1ccc(Oc2cc(N3CC4(CNC4)C3)ncc2F)c(F)c1` [Example 418, 4-(2,6-difluorobenzyl)-2-(3-fluoro-4-((5-fluoro-2-(2,6-diazaspiro[3.3]heptan-2-yl)pyridin-4-yl)oxy)phenyl)-2,4-dihydro-3H-1,2,4-triazol-3-one], which IC50 is on record?
**A.** The IC50 was < 100 nM.

**Q.** Which IC50 does the source give for `CCNC1(C)CN(c2cc(Oc3ccc(-n4ncn(Cc5c(F)cccc5F)c4=O)cc3F)c(F)cn2)C1` [Example 419, 4-(2,6-difluorobenzyl)-2-(4-((2-(3-(ethylamino)-3-methylazetidin-1-yl)-5-fluoropyridin-4-yl)oxy)-3-fluorophenyl)-2,4-dihydro-3H-1,2,4-triazol-3-one] here?
**A.** The IC50 was 100 to 1000 nM.

**Q.** `CC1(N)CN(c2nccc(Oc3ccc(-n4ncn(Cc5c(F)cccc5F)c4=O)cc3F)c2Cl)C1` [Example 420, 2-(4-((2-(3-amino-3-methylazetidin-1-yl)-3-chloropyridin-4-yl)oxy)-3-fluorophenyl)-4-(2,6-difluorobenzyl)-2,4-dihydro-3H-1,2,4-triazol-3-one] was tested. Which IC50 did it give?
**A.** The IC50 was < 100 nM.

**Q.** `CC1(N)CN(c2cc(Oc3ccc(-n4ncn(Cc5c(F)cccc5F)c4=O)cc3F)c(Cl)cn2)C1` [Example 421, 2-(4-((2-(3-amino-3-methylazetidin-1-yl)-5-chloropyridin-4-yl)oxy)-3-fluorophenyl)-4-(2,6-difluorobenzyl)-2,4-dihydro-3H-1,2,4-triazol-3-one] was tested. Which IC50 did it give?
**A.** The IC50 was < 100 nM.

**Q.** `Cc1cnc(N2CC(C)(N)C2)cc1Oc1ccc(-n2ncn(Cc3c(F)cccc3F)c2=O)cc1F` [Example 422, 2-(4-((2-(3-amino-3-methylazetidin-1-yl)-5-methylpyridin-4-yl)oxy)-3-fluorophenyl)-4-(2,6-difluorobenzyl)-2,4-dihydro-3H-1,2,4-triazol-3-one] was tested. Which IC50 did it give?
**A.** The IC50 was < 100 nM.

**Q.** Which IC50 does the source give for `CC1(N)CN(c2nccc(Oc3ccc(-n4ncn(Cc5c(F)cccc5F)c4=O)cc3Cl)c2F)C1` [Example 423, 2-(4-((2-(3-amino-3-methylazetidin-1-yl)-3-fluoropyridin-4-yl)oxy)-3-chlorophenyl)-4-(2,6-difluorobenzyl)-2,4-dihydro-3H-1,2,4-triazol-3-one] here?
**A.** Its IC50 is < 100 nM.

**Q.** `CC1(N)CN(c2cc(Oc3ccc(-n4ncn(Cc5c(F)cccc5F)c4=O)cc3F)c(F)cn2)C1` [Example 424, 2-(4-((2-(3-amino-3-methylazetidin-1-yl)-5-fluoropyridin-4-yl)oxy)-3-fluorophenyl)-4-(2,6-difluorobenzyl)-2,4-dihydro-3H-1,2,4-triazol-3-one] was tested. Which IC50 did it give?
**A.** Its IC50 is 100 to 1000 nM.

**Q.** How did the IC50 turn out when `C[C@H]1[C@@H](N)CN1c1cc(Oc2ccc(-n3ncn(Cc4c(F)cccc4F)c3=O)cc2F)c(Cl)cn1` [Example 425, 2-(4-((2-((2S,3S)-3-amino-2-methylazetidin-1-yl)-5-chloropyridin-4-yl)oxy)-3-fluorophenyl)-4-(2,6-difluorobenzyl)-2,4-dihydro-3H-1,2,4-triazol-3-one] was run?
**A.** The IC50 was < 100 nM.

**Q.** With `C[C@H]1[C@@H](N(C)C)CN1c1cc(Oc2ccc(-n3ncn(Cc4c(F)cccc4F)c3=O)cc2F)c(Cl)cn1` [Example 426, 2-(4-((5-chloro-2-((2S,3S)-3-(dimethylamino)-2-methylazetidin-1-yl)pyridin-4-yl)oxy)-3-fluorophenyl)-4-(2,6-difluorobenzyl)-2,4-dihydro-3H-1,2,4-triazol-3-one] as the molecule, how does the IC50 read?
**A.** Its IC50 is < 100 nM.

**Q.** For `O=c1n(-c2ccc(Oc3cccnc3)cc2)nc(Cl)n1Cc1ccccc1` [Example 427, 4-benzyl-5-chloro-2-(4-(pyridin-3-yloxy)phenyl)-2,4-dihydro-3H-1,2,4-triazol-3-one], which IC50 is on record?
**A.** The IC50 was < 100 nM.

**Q.** With `O=c1n(-c2ccc(Oc3ccccc3)cc2)nc2n1C(c1ccccc1)CC2` (stereo not drawn) [Example 428, 2-(4-phenoxyphenyl)-5-phenyl-2,5,6,7-tetrahydro-3H-pyrrolo[2,1-c][1,2,4]triazol-3-one] as the molecule, how does the IC50 read?
**A.** The IC50 was < 100 nM.

**Q.** For `Cn1c(Oc2ccc(-n3nc(Cl)n(Cc4ccccc4)c3=O)cc2)cccc1=O` [Example 429, 6-(4-(4-benzyl-3-chloro-5-oxo-4,5-dihydro-1H-1,2,4-triazol-1-yl)phenoxy)-1-methylpyridin-2(1H)-one], which IC50 is on record?
**A.** The IC50 was 100 to 1000 nM.

**Q.** `O=c1n(-c2ccc(Oc3ccccc3[N+](=O)[O-])cc2)nc(Cl)n1Cc1ccccc1` [Example 430, 4-benzyl-5-chloro-2-(4-(2-nitrophenoxy)phenyl)-2,4-dihydro-3H-1,2,4-triazol-3-one] was tested. Which IC50 did it give?
**A.** The IC50 was 100 to 1000 nM.
